Measured values published in patent US12319676B2, “Substituted amide compounds useful as farnesoid X receptor modulators” (BRISTOL-MYERS SQUIBB COMPANY, priority 2019, dated 2025).

Molecular target: T1, human FXR (Homo sapiens, UniProt Q96RI1)
T1 construct: expressed in transfected cells; host or cells: HEK293 cells stably carrying a 5xGal4 response element-luciferase reporter, transiently transfected with pcDNA3.1-Gal4-FXR
T1 sequence (Q96RI1 262-486 limits assumed): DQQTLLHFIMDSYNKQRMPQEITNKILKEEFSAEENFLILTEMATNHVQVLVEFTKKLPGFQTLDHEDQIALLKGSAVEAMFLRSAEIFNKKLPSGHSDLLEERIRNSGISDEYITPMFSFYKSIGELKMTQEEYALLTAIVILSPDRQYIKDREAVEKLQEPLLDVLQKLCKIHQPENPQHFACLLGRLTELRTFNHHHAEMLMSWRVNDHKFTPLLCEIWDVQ
Assay: transient human FXR/Gal4-luciferase reporter assay
Assay type: cell-based
Conditions: Gal4-hFXR fusion construct, luciferase reporter in HEK293 cells; overnight incubation; response as percentage of 8 μM GW-4064 control
Summary of the method: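 HEK293 cells stably carrying a 5×Gal4-response-element firefly luciferase reporter were transiently transfected with a Gal4 DBD-human FXR LBD fusion, then treated overnight with compounds at 37 °C. Steady-Glo luminescence, minus DMSO background, was expressed as percent of the response to 8 μM GW-4064.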

| EC50 [µM] | SMILES |
| --- | --- |
| 0.185 | N#Cc1cc(F)cc(N(CC23CCC(c4nc(C5CC5)no4)(CC2)CC3)C(=O)C23CC(F)(C2)C3)c1 [Example 62, N-(3-cyano-5-fluorophenyl)-N-((4-(3-cyclopropyl-1,2,4-oxadiazol-5-yl)bicyclo[2.2.2]octan-1-yl)methyl)-3-fluorobicyclo[1.1.1]pentane-1-carboxamide] |
| 4 | CS(=O)(=O)Nc1cccc(N(CC23CCC(c4nc(C5CC5)no4)(CC2)CC3)C(=O)C23CC(F)(C2)C3)c1 [Example 66, N-((4-(3-cyclopropyl-1,2,4-oxadiazol-5-yl)bicyclo[2.2.2]octan-1-yl)methyl)-3-fluoro-N-(3-(methylsulfonamido)phenyl)bicyclo[1.1.1]pentane-1-carboxamide] |
| 4 | CS(=O)(=O)Nc1cccc(N(CC23CCC(c4nc(C5CC5)no4)(CC2)CC3)C(=O)[C@H]2C[C@](O)(C(F)(F)F)C2)c1 [Example 67, (1S,3S)-N-((4-(3-cyclopropyl-1,2,4-oxadiazol-5-yl)bicyclo[2.2.2]octan-1-yl)methyl)-3-hydroxy-N-(3-(methylsulfonamido)phenyl)-3-(trifluoromethyl)cyclobutane-1-carboxamide] |
| 0.993 | Cn1nc(C2CC2)cc1C12CCC(CN(C(=O)C34CC(F)(C3)C4)c3cccc(C#N)c3)(CC1)CC2 [Example 72, N-(3-cyanophenyl)-N-((4-(3-cyclopropyl-1-methyl-1H-pyrazol-5-yl)bicyclo[2.2.2]octan-1-yl)methyl)-3-fluorobicyclo[1.1.1]pentane-1-carboxamide] |
| 2.13 | Cn1nc(C2CC2)cc1C12CCC(CN(C(=O)C3CCC(F)(F)CC3)c3cccc(C#N)c3)(CC1)CC2 [Example 73, N-(3-cyanophenyl)-N-((4-(3-cyclopropyl-1-methyl-1H-pyrazol-5-yl)bicyclo[2.2.2]octan-1-yl)methyl)-4,4-difluorocyclohexane-1-carboxamide] |
| 1.35 | Cn1nc(C2CC2)cc1C12CCC(CN(c3cccc(C#N)c3)C(=O)[C@H]3C[C@@](C)(O)C3)(CC1)CC2 [Example 74, (1S,3S)-N-(3-cyanophenyl)-N-((4-(3-cyclopropyl-1-methyl-1H-pyrazol-5-yl)bicyclo[2.2.2]octan-1-yl)methyl)-3-hydroxy-3-methylcyclobutane-1-carboxamide] |
| 4 | Cn1nc(C2CC2)cc1C12CCC(CN(C(=O)C3CCC(F)(F)CC3)c3cccc(S(C)(=O)=O)c3)(CC1)CC2 [Example 77, N-((4-(3-cyclopropyl-1-methyl-1H-pyrazol-5-yl)bicyclo[2.2.2]octan-1-yl)methyl)-4,4-difluoro-N-(3-(methylsulfonyl)phenyl) cyclohexane-1-carboxamide] |
| 4.36 | COC(=O)COc1cccc(N(CC23CCC(c4ccc5c(cnn5C)c4)(CC2)OC3)C(=O)C2CCOCC2)c1 [Example 81, Methyl 2-(3-(N-((1-(1-methyl-1H-indazol-5-yl)-2-oxabicyclo[2.2.2]octan-4-yl)methyl)tetrahydro-2H-pyran-4-carboxamido)phenoxy) acetate] |

The next lines start with the compound.

| SMILES | EC50 [µM] |
| --- | --- |
| N#Cc1cc(F)cc(N(CC23CCC(c4nc(C5CC5)no4)(CC2)CC3)C(=O)[C@H]2C[C@](O)(C(F)(F)F)C2)c1 [Example 63, (1S,3S)-N-(3-cyano-5-fluorophenyl)-N-((4-(3-cyclopropyl 1,2,4-oxadiazol-5-yl)bicyclo[2.2.2]octan-1-yl)methyl)-3-hydroxy-3-(trifluoromethyl)cyclobutane-1-carboxamide] | 1.05 |
| N#Cc1cc(F)cc(N(CC23CCC(c4nc(C5CC5)no4)(CC2)CC3)C(=O)C2CC(F)(F)C2)c1 [Example 64, N-(3-cyano-5-fluorophenyl)-N-((4-(3-cyclopropyl-1,2,4-oxadiazol-5-yl)bicyclo[2.2.2]octan-1-yl)methyl)-3,3-difluorocyclobutane-1-carboxamide] | 0.528 |
| CS(=O)(=O)Nc1cccc(N(CC23CCC(c4nc(C5CC5)no4)(CC2)CC3)C(=O)C2CC(F)(F)C2)c1 [Example 65, N-((4-(3-cyclopropyl-1,2,4-oxadiazol-5-yl)bicyclo[2.2.2]octan-1-yl)methyl)-3,3-difluoro-N-(3-(methylsulfonamido)phenyl)cyclobutane-1-carboxamide] | 1.28 |
| CS(=O)(=O)c1cccc(N(CC23CCC(c4nc(C5CC5)no4)(CC2)CC3)C(=O)C23CC(F)(C2)C3)c1 [Example 68, N-((4-(3-cyclopropyl-1,2,4-oxadiazol-5-yl)bicyclo[2.2.2]octan-1-yl)methyl)-3-fluoro-N-(3-(methylsulfonyl)phenyl)bicyclo[1.1.1]pentane-1-carboxamide] | 1.49 |
| CS(=O)(=O)c1cccc(N(CC23CCC(c4nc(C5CC5)no4)(CC2)CC3)C(=O)C2CCC(F)(F)CC2)c1 [Example 69, N-((4-(3-cyclopropyl-1,2,4-oxadiazol-5-yl)bicyclo[2.2.2]octan-1-yl)methyl)-4,4-difluoro-N-(3-(methylsulfonyl)phenyl)cyclohexane-1-carboxamide] | 4 |
| CC(N(C(=O)C12CC(F)(C1)C2)c1cccc(C#N)c1)C12CCC(c3nc(C4CC4)no3)(CC1)CC2 (stereo not shown) [Example 70, N-(3-cyanophenyl)-N-(1-(4-(3-cyclopropyl-1,2,4-oxadiazol-5-yl)bicyclo[2.2.2]octan-1-yl)ethyl)-3-fluorobicyclo[1.1.1]pentane-1-carboxamide] | 2 |
| Cn1nc(C2CC2)cc1C12CCC(CN(c3cccc(C#N)c3)C(=O)[C@H]3C[C@](O)(C(F)(F)F)C3)(CC1)CC2 [Example 75, (1S,3S)-N-(3-cyanophenyl)-N-((4-(3-cyclopropyl-1-methyl-1H-pyrazol-5-yl)bicyclo[2.2.2]octan-1-yl)methyl)-3-hydroxy-3-(trifluoromethyl)cyclobutane-1-carboxamide] | 1.38 |
| Cn1nc(C2CC2)cc1C12CCC(CN(c3cccc(S(C)(=O)=O)c3)C(=O)[C@H]3C[C@](O)(C(F)(F)F)C3)(CC1)CC2 [Example 76, (1S,3S)—N-((4-(3-cyclopropyl-1-methyl-1H-pyrazol-5-yl)bicyclo[2.2.2]octan-1-yl)methyl)-3-hydroxy-N-(3-(methylsulfonyl)phenyl)-3-(trifluoromethyl)cyclobutane-1-carboxamide] | 4 |
| Cn1nc(C2CC2)cc1C12CCC(CN(C(=O)C34CC(F)(C3)C4)c3cccc(S(C)(=O)=O)c3)(CC1)CC2 [Example 78, N-((4-(3-cyclopropyl-1-methyl-1H-pyrazol-5-yl)bicyclo[2.2.2]octan-1-yl)methyl)-3-fluoro-N-(3-(methylsulfonyl)phenyl)bicyclo[1.1.1]pentane-1-carboxamide] | 4 |
| COC(=O)COc1cccc(N(CC23CCC(c4ccc(N(C)C)c(Cl)c4)(CC2)CC3)C(=O)C2CCCCC2)c1 [Example 79, Methyl 2-(3-(N-((4-(3-chloro-4-(dimethylamino)phenyl)bicyclo[2.2.2]octan-1-yl)methyl)cyclohexanecarboxamido)phenoxy) acetate] | 1.04 |
| COC(=O)COc1cccc(N(CC23CCC(c4ccc(N(C)C)cc4)(CC2)CC3)C(=O)C2CCCCC2)c1 [Example 80, Methyl 2-(3-(N-((4-(4-(dimethylamino)phenyl)bicyclo[2.2.2]octan-1-yl)methyl)cyclohexanecarboxamido)phenoxy) acetate] | 1.6 |
